Where a name gives a salt, the structure may show the parent alone.
test system: [^3 H]-GABA uptake; test: in vitro inhibition of [^3 H]-GABA uptake; assay type: biochemical; conditions: Male Wistar rat cortical tissue, 60 min, 30° C., pH 7.5, ligand 0.2 nM
Experimental: The in vitro inhibition of [^3 H]-GABA uptake was assessed essentially by the method of Fjalland (Acta Pharmacol. Toxicol. 42 (1978) 73-76). Male Wistar rat cortical tissue was gently homogenized by hand using a glass teflon homogenizer in 10 volumes of 0.32M sucrose. Incubation was performed in a 40 mM tris HCl buffer (pH 7.5 at 30° C.) containing […], […], 4 mM MgSO4, 2.3 mM CaCl2 and 10 mM glucose, for 60 min. at 30° C. Ligand concentration was 0.2 nM.

Row | Structure (SMILES) | IC50 [nM]
1 | CCc1ccccc1C(=NOCCN1CCC[C@@H](C(=O)O)C1)c1sccc1C [Example 4, (R)-(2-Ethylphenyl)-(3-methyl-2-thienyl)methanone O-[2-(3-carboxypiperidin-1-yl)ethyl]oxime hydrochloride] | 52
2 | O=C(O)[C@@H]1CCCN(CCON=C(c2ccccc2)c2ccccc2)C1 [Example 1, (R)-Diphenylmethanone O-[2-(3-carboxypiperidin-1-yl)ethyl]oxime] | 82
3 | Cc1ccsc1C(=NOCCN1CCC[C@@H](C(=O)O)C1)c1sccc1C [Example 3, (R)-Bis(3-methyl-2-thienyl)methanone O-[2-(3-carboxypiperidin-1-yl)ethyl]oxime hydrochloride] | 30
4 | Cc1ccccc1C(=NOCCN1CCC[C@@H](C(=O)O)C1)c1sccc1C [Example 2, (R)-(2-Methylphenyl)-(3-methyl-2-thienyl)methanone O-[2-(3-carboxypiperidin-1-yl)ethyl]oxime hydrochloride] | 44
5 | Cc1ccsc1C(=NOCCN1CCC[C@H](C(=O)O)C1)c1sccc1C [Example 47, (S)-Bis(3-methyl-2-thienyl)methanone O-[2-(3-carboxypiperidin-1-yl)ethyl]oxime hydrochloride] | 51
6 | Cc1ccsc1C(=NOCCN1CCC[C@@H](C(=O)O)C1)c1cccs1 [Example 5, (R)-(3-Methyl-2-thienyl)-(2-thienyl)methanone O-[2-(3-carboxypiperidin-1-yl)ethyl]oxime] | 64
7 | O=C(O)[C@@H]1CCCN(CCON=CC(c2ccccc2)c2ccccc2)C1 [Example 83, E/Z-(R)-2,2-Diphenylacetaldehyde O-[2-(3-carboxy-piperidin-1-yl)ethyl]oxime hydrochloride] | 217
8 | Cc1ccsc1C(=NOCCN1CCC=C(C(=O)O)C1)c1sccc1C [Example 46, Bis(3-methyl-2-thienyl)methanone O-[2-(3-carboxy-1,2,5,6-tetrahydropyridin-1-yl)ethyl]oxime hydrochloride] | 59
9 | Cc1ccccc1C(=NOCCN1CCCC(C(=O)O)C1)c1sccc1C (centres unmarked) [Example 26, (2-Methylphenyl)-(3-methyl-2-thienyl)methanone O-[2-(3-carboxypiperidin-1-yl)ethyl]oxime hydrochloride] | 58
10 | O=C(O)C1=CCCN(CCON=C(c2ccccc2)c2ccccc2)C1 [Example 45, Diphenylmethanone O-[2-(3-carboxy-1,2,5,6-tetrahydropyridin-1-yl)ethyl]oxime] | 48
11 | O=C(O)C1CCCN(CCON=C(c2ccccc2)c2ccccc2)C1 (centres unmarked) [Example 25, Diphenylmethanone O-[2-(3-carboxypiperidin-1-yl)ethyl]oxime hydrochloride] | 138

test system: not given; test: not given; conditions: background art; cited from earlier work

Row | Structure (SMILES) | ability to cross the blood-brain barrier (in words)
12 | O=C(O)C1CCCNC1 (centres unmarked) [piperidine-3-carboxylic acid] | unable to cross the blood-brain b arrier

test system: GABA uptake; test: not given; conditions: background art; cited from earlier work

Row | Structure (SMILES) | inhibition of GABA re-uptake / uptake (in words)
13 | O=C(O)C1CCCN(CCC=C(c2ccccc2)c2ccccc2)C1 (centres unmarked) [SK&F 89976A, N-(4,4-diphenyl-3-buten-1-yl)nipecotic acid] | oral inhibitors of GABA uptake
14 | O=C(O)CC1CCN(CCC=C(c2ccccc2)c2ccccc2)C1 (stereo not drawn) [SK&F 100561, N-(4,4-diphenyl-3-buten-1-yl)homo-β-proline] | oral inhibitors of GABA uptake
15 | O=C(O)C1=CCCN(CCC=C(c2ccccc2)c2ccccc2)C1 [SK&F 100330A, N-(4,4-diphenyl-3-buten-l-yl)guvacine] | oral inhibitors of GABA uptake
16 | O=C(O)C1CCCNC1 (centres unmarked) [piperidine-3-carboxylic acid] | potent inhibitor of GABA re-uptake
17 | O=C(O)C1CCCN(CCC=C(c2ccccc2)c2cccs2)C1 (centres unmarked) [SK&F 100604J, N-(4-phenyl-4-(2-thienyl)-3-buten-1-yl)nipecotic acid] | oral inhibitors of GABA uptake
